Source: patent US20250066816A1, “ELECTROPORATION ENHANCERS FOR CRISPR-CAS SYSTEMS” (SIGMA-ALDRICH CO. LLC, priority 2021, published 2025)

Tested on: human HEK293 cells
Test: High fidelity SpCas9 RNP nucleofection, HEKSite4 target site, HEK293 cells, editing frequency by NGS
Format: cell-based
Details: at least one of the three dosages tested (Table 10), FIG. 6
Description: A high fidelity SpCas9 protein (Catalog No. CAS9 Plus) and a synthetic single guide RNA (sgRNA) with the spacer sequence of 5′-[…]-3′ (SEQ ID NO: 46) targeting the human HEKSite4 locus were purchased from MilliporeSigma. Pentosan polysulfate sodium salt with a formula of (C5H6Na2O10S2)n was purchased from Selleckchem (Catalog No. S3500). A pentosan polysulfate solution was prepared by dissolving the chemical in water at 50 mg/ml. The molecular structural unit of the polyanionic polymer is as follows: […]
Genomic DNA extracts from transfected cells were prepared using QuickExtract Solution. Targeted genomic region was PCR amplified with NGS primers using JumpStart™ Taq ReadyMix™ for Quantitative PCR Kit (MilliporeSigma) with the following cycling condition: 98° C./2 m; 98° C./15 s, 62° C./30 s, and 72° C./45 s for 34 cycles; 72° C./5 m.
Primary PCR products were then reamplified with Illumina index primers using JumpStart™ Taq ReadyMix™ for Quantitative PCR Kit (MilliporeSigma) with the following cycling condition: 95° C./3 m; 95° C./30 s, 55° C./30 s, and 72° C./30 s for 8 cycles; 72° C./5 m. Indexed PCR products were purified with Select-a-Size DNA Clean & Concentrator kit (Zymo) and quantified by PicoGreen (ThermoFisher). […] The FASTQ files for each sample were analyzed for genome editing frequency. […]

Question: How did the “level of editing efficiency versus the control buffer” value turn out when Collagen from rat tail was run?
Answer: significantly higher
